# Assay results reported in ChEMBL document CHEMBL5154690, “Discovery of a tricyclic farnesoid X receptor agonist HEC96719, a clinical candidate for treatment of non-alcoholic steatohepatitis” (Eur J Med Chem, 2022).
# Calls of active or inactive are those of the source. The calls are words filed in the database; no cut-off is given here.
# What was measured:
# [1] = biological target: T1, Nuclear receptor subfamily 1 group I member 2 (Homo sapiens, UniProt O75469); assay: Agonist activity at PXR (unknown origin)
# T1 sequence (O75469 whole entry): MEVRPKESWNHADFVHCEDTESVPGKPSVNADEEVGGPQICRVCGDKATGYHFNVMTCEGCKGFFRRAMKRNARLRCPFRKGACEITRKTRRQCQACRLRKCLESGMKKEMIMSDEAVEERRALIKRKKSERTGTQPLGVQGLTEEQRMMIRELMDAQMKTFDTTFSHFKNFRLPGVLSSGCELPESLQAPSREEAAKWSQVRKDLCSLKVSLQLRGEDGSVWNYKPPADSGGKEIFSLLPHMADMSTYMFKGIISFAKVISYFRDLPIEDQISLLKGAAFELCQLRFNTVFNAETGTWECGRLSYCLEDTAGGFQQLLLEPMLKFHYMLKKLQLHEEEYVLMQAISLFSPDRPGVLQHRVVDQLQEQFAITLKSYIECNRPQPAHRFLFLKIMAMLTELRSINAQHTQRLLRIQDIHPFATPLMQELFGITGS
# [2] = Ratio of drug level in skin to plasma in male Sprague-Dawley rat at 4.5 mg/kg, po administered as C14-lableled compound and measured at 0.25 to 6 hrs; type: ADME, organism-based; details: other tissue, time 0.25-6 hrs
# Mus musculus [3] = assay: Anti-NASH activity in western style diet-induced nonalcoholic steatohepatitis model of male C57BL/6 mouse assessed as reduction in NASH activity score (NAS) at 1 mg/kg, po administered once daily from week 32 to 44; type: functional, organism-based
# [4] = biological target: T2, G-protein coupled bile acid receptor 1 (Homo sapiens) (UniProt Q8TDU6); assay: Agonist activity in human GPBAR1 assessed as increase in intracellular cAMP level relative to control; type: functional, cell-based
# T2 sequence (whole entry): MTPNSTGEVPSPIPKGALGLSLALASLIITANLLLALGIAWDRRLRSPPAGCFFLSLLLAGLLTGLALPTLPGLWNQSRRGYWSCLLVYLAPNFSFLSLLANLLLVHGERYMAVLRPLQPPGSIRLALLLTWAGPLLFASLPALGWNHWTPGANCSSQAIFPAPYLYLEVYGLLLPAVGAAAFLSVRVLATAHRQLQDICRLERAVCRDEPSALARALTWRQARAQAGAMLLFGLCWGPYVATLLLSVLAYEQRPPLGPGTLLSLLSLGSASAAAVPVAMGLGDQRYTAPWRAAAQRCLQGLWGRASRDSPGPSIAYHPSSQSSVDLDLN
# [5] = Drug recovery in stomach of male Sprague-Dawley rat at 4.5 mg/kg, po administered as C14-lableled compound and assessed as radioactivity and measured at 6 hrs; type: ADME, organism-based; details: in vivo
# [6] = Drug recovery in stomach of male Sprague-Dawley rat at 4.5 mg/kg, po administered as C14-lableled compound and assessed as radioactivity and measured at 0.25 hrs; type: ADME, organism-based; details: in vivo
# [7] = Drug metabolism in plasma of Sprague-Dawley rat assessed as production of toxic metabolites at 4.5 mg/kg, po administered as C14-lableled compound with single dose; type: ADME, organism-based; details: in vivo
# Mus musculus [8] = assay: Anti-NASH activity against high fat (HF) diet-induced nonalcoholic steatohepatitis in leptin-deficient ob/ob mouse model assessed as reduction in serum TG level at 3 mg/kg, po administered once daily from week 5 to 10; type: functional, organism-based
# [9] = Drug recovery in pancreas of male Sprague-Dawley rat at 4.5 mg/kg, po administered as C14-lableled compound and assessed as radioactivity and measured at 0.25 hrs; type: ADME, organism-based; details: in vivo
# [10] = Ratio of drug level in pancreas to plasma in male Sprague-Dawley rat at 4.5 mg/kg, po administered as C14-lableled compound and measured at 0.25 to 6 hrs; type: ADME, organism-based; details: other tissue, time 0.25-6 hrs
# [11] = biological target: T3, Bile acid receptor (Rattus norvegicus) (UniProt Q62735); assay: In vivo activation of FXR in male Sprague-Dawley rat assessed as fold increase in ileum FGF15 level at 5 mg/kg, po administered as single dose measured at 1 hr by RT-qPCR assay; type: functional, organism-based
# T3 sequence (whole entry): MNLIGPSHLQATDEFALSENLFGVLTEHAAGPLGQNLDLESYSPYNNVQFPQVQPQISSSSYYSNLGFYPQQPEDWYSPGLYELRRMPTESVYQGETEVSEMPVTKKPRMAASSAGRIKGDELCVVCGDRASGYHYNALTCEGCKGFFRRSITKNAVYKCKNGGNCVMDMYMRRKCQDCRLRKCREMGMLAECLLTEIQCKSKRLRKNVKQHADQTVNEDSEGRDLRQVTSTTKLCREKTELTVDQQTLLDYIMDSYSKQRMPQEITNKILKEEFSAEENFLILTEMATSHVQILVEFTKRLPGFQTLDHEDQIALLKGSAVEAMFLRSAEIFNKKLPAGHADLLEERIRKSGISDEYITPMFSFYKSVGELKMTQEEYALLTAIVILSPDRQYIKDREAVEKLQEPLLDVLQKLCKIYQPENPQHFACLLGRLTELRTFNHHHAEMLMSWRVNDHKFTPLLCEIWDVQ
# [12] = Drug recovery in skin of male Sprague-Dawley rat at 4.5 mg/kg, po administered as C14-lableled compound and assessed as radioactivity and measured at 6 hrs; type: ADME, organism-based, Skin of body; details: in vivo, BLD = below limit of detection
# [13] = Volume of distribution at steady state in male Beagle dog at 1 mg/kg, iv measured by LC-MS/MS analysis; type: ADME, organism-based, Canis lupus familiaris; details: in vivo, read-out: Vdss
# [14] = Drug recovery in kidney of male Sprague-Dawley rat at 4.5 mg/kg, po administered as C14-lableled compound and assessed as radioactivity and measured at 6 hrs; type: ADME, organism-based; details: in vivo
# Mus musculus [15] = assay: Anti-NASH activity against high fat (HF) diet-induced nonalcoholic steatohepatitis in leptin-deficient ob/ob mouse model assessed as reduction in NASH activity score (NAS) at 0.3 to 1 mg/kg, po administered once daily from week 5 to 10; type: functional, organism-based; details: dose 0.3-1 mg/kg
# [16] = Drug recovery in liver of male Sprague-Dawley rat at 4.5 mg/kg, po administered as C14-lableled compound and assessed as radioactivity and measured at 0.25 hrs; type: ADME, organism-based; details: in vivo
# [17] = AUC (0 to t) in male Sprague-Dawley rat at 5 mg/kg, po measured by LC-MS/MS analysis; type: ADME, organism-based; design: dose 5 mg/kg, route po; details: in vivo
# [18] = Half-life in male Sprague-Dawley rat at 1 mg/kg, iv measured by LC-MS/MS analysis; type: ADME, organism-based; details: in vivo
# [19] = Ratio of drug level in heart to plasma in male Sprague-Dawley rat at 4.5 mg/kg, po administered as C14-lableled compound and measured at 0.25 to 6 hrs; type: ADME, organism-based; details: other tissue, time 0.25-6 hrs
# [20] = Ratio of drug level in kidney to plasma in male Sprague-Dawley rat at 4.5 mg/kg, po administered as C14-lableled compound and measured at 0.25 to 6 hrs; type: ADME, organism-based; details: other tissue, time 0.25-6 hrs
structure (smiles),measurement,setting,value
O=C(O)c1ccc2c(c1)Oc1ccc(OCc3c(-c4c(Cl)cccc4Cl)noc3C3CC3)nc1C1(CC1)C2,EC50,[1],> 10 µM
same,Ratio,[2],0.56
same,Activity,Mus musculus [3],Active
same,Activity,[4],29%
same,Drug recovery,[5],188 ngequiv/g
same,Drug recovery,[6],3213 ngequiv/g
same,Drug metabolism,[7],Metabolite_Notdetected
same,Activity,Mus musculus [8],Active
same,Drug recovery,[9],177 ngequiv/g
same,Ratio,[10],0.8
same,fold change (FC),[11],24
same,Drug recovery,[12],Bld
same,Vd,[13],1.12 L/kg
same,Drug recovery,[14],67.8 ngequiv/g
same,Activity,Mus musculus [15],Active
same,Drug recovery,[16],5308 ngequiv/g
same,AUC(0-t),[17],1180 ng·h/mL
same,half-life,[18],16.8 min
same,Ratio,[19],1
same,Ratio,[20],1.8
